Measured values: US20120115804A1, “COMPOSITIONS AND METHODS FOR CHARACTERIZING AND TREATING NEOPLASIA” (The John Hopkins University, priority 2009, published 2012)
Entries after “also recorded” stand apart in the source; their conditions may differ. Where two headings read alike, the source gives them in different places.

Key:
VDRE containing genes = experiment: Expression of VDRE-containing genes after treatment in vitro; assay type: cell-based, human
Description: FIGS. 6A-6C show expression levels of VDR Response Element (VDRE)-containing genes in primary breast cancer and normal breast tissue. […] Assays were performed in triplicate on a total of 8 breast cancers and 3 normal organoid preparations. […] Means and standard deviations are shown. Significant differences between normal and cancer are indicated (* p<0.05; ** p<0.01). […] The bars represent the fold induction of VDR downstream gene targets (CYP3A4[24/25OH]-white, CYP27B1[1OH]-grey, and C/EBP-hatched) over untreated control (horizontal line=1.0). Means and standard deviations of triplicate experiments are shown (* p<0.05; ** p<0.01).

[1] = tested on: breast cancer cell lines (HS578T, 21PT, MCF7, and T47D) and the immortalized normal breast epithelial cell line HBL100; details: 96 hours, Calcitriol 1.5 μM, AZA 10 μM, alone or combined, five breast cell lines, vs vehicle control
Description: Cell viability was measured by MTT assay.
(§1) Human breast cell lines were obtained from American Type Culture Collection (Rockville, Md.) and propagated as described 17. For pharmacological assays, 1.0×10^6 cells were seeded in 25 cm^2 tissue culture flasks.
Cell viability was measured using the Cell Titer 96 AQ-One Solution Cell Proliferation Assay kit from Promega Corporation (Madison, Wis.). Formazan absorbance was read at 490 nm in a 96-well plate reader.

VDR promoter = details: 96 hours, all breast cell lines
Description: To determine whether the VDR gene promoter was hypermethylated in breast cancer, bisulfite sequencing was performed in the region 790 bp upstream to 380 bp downstream of the VDR transcription start site after treatment of cells in the presence or absence of AZA for ninety six hours (see FIG. 3).
PCR products were separated electrophoretically and isolated using a PCR purification kit (Qiagen, Valencia, Calif.). DNA was sequenced using the M13 Reverse Primer with an Applied Biosystems automated fluorescent sequencer according to the manufacturer's instructions. Percent DNA methylation was determined using the ratio of cytidine to thymidine traces at CpG dinucleotides.

VDR variants = details: after treatment; for levels of V1 and V2 VDR variants (active transcripts): all the breast cell lines
Description: The V1d primers, spanning exon 1d and the junction of exon 1c and exon 2, were designed to recognize the transcript variants v1d, V1d′ and v1d″ (FIG. 1). In order to detect all of these variants, the nonspecific V6 primers, spanning exon 3 and exon 4, were used.
The PCR products were separated on 2% agarose gels, scanned in a Gel Doc Imager (BioRad, Philadelphia, Pa.), and quantified using Image Quant software (BioRad, Philadelphia, Pa.).

VDR mRNA = details: placental carcinoma cell lines; Pospechova et al. 2009; cited from earlier work
VDR = experiment: Quantitative Real-Time PCR of total VDR expression in breast cell lines; details: 96 hours, V primer set
Description: as §1
PCR was then performed for 40 cycles using gene-specific primers. To determine total VDR levels, pre-mixed “Assay on Demand” primer-probe sets for VDR (Hs01045843_m1) and GAPDH (Hs99999905_m1) and the GeneAmp® Fast PCR Master Mix were purchased from Applied Biosystems (Foster City, Calif.) and cDNA was amplified following the manufacturer's instructions in the ABI PRISM 7900HT instrument.

| Compound | expression of VDRE containing genes (VDRE containing genes) | cell viability / growth inhibition [1] | methylation of the CpG islands in the VDR promoter (VDR promoter) | methylation of the CpG islands in the VDR promoter (VDR promoter; listed as 5′ dAZA) | levels of V1 and V2 VDR variants (active transcripts) (VDR variants) | levels of V1 and V2 VDR variants (active transcripts) (VDR variants; listed as 5′ dAZA) | V1d and V1d′ VDR variants, response to demethylation (VDR variants; breast cell lines) | VDR mRNA expression (VDR mRNA) | overall expression level of VDR (total VDR transcripts) (VDR) | cell viability / growth inhibition ([1]; listed as VTD) |
| --- | --- | --- | --- | --- | --- | --- | --- | --- | --- | --- |
| 5′ deoxy-azacytidine | concurrent increase | restoration of sensitivity | induced demethylation | demethylated | significantly increased; also recorded: induced the re-expression | restored | less responsive | re-expression | parallel increase | – |
| C=C1/C(=C\C=C2/CCC[C@]3(C)[C@@H]([C@H](C)CCCC(C)(C)O)CC[C@@H]23)C[C@@H](O)C[C@@H]1O [Calcitriol, 1,25-dihydroxyvitamin D3] | – | minimal effects; also recorded: insensitivity | – | – | – | – | – | – | – | ineffective |
